Results as given in patent publication US4789478A, “Conversion of inorganic ions to metal sulfides by microorganisms” (priority 1987, dated 1988).

Test system: Desulfomonas and Citrobacter freundii
Experiment: Effect of sulfate addition on sulfate-reducing activity of soil samples (Table 4)
Description: Soil samples are treated with a culture of Desulfomonas (10^8 cells/mL) and Citrobacter freundii (10^4 cells/mL) at 30° C., with and without added sulfate. Sulfate, if added, is a 1:1 mixture by weight of ferric ammonium sulfate and magnesium sulfate. Sulfate-reducing activity is indicated by formation of black precipitate in the soil sample within 24 h after mixing the cultures with soil samples.

Sulfate
sulfate-reducing activity of the mixed culture (in words) (100 ppm of sulfate): greatly improves sulfate-reducing activity of the mixed culture | sulfate reduction (in words) (200 ppm of sulfate): permit reduction in all cases
